Entries after “also recorded” stand apart in the source; their conditions may differ.
Key:
[1] = test system: rps29+/- zebrafish embryos; assay: Hemoglobin (benzidine) staining in rps29 mutant zebrafish embryos; assay type: in vivo
Protocol: (§1) (FIG. 10A) SMER28 rescues RBC output in rps29^+/− zebrafish embryos. The level of hemoglobin in the yolk sac was visualized 40hpf with benzidine staining. Images are representative of the proportion of embryos indicated (of total counted). (FIG. 10B) Quantitation of SMER28 rescue for a range of 0.1-1 μM, with embryos grouped by high, medium, and low levels of hemoglobin staining. (FIG. 10C) Peripheral blood (PB) RBC counts and hematocrit in mice with irradiation-induced anemia. Mice were treated with the PEG400-based vehicle containing DMSO (VEH) (n=11), 1 mg/kg Dex (sodium-phosphate) (n=13), or 10 mg/kg SMER28 (n=9) for 3 weeks, bled, and assessed. Data are combined from 3 independent experiments. (FIG. 10D) Erythroid cells as proportion of the human graft in mice transplanted with DBA CD34-5F progenitors, and treated as in (FIG. 1c). (FIG. 10E) Levels of human engraftment in NSG mouse bone marrow (BM) transplanted with CB CD34^+ cells. Mice were treated with DMSO plus vehicle (VEH) (n=10), 1 mg/kg Dex (sodium-phosphate) (n=6), or 2 mg/kg SMER28 (n=11) for 4 weeks. (FIG. 10F) The proportion of erythroid, myeloid, and lymphoid (B cells) lineages within the human graft in vehicle- and SMER28-treated mice transplanted with CB CD34^+ cells. Only the effect on the erythroid lineage was significant. Data in FIGS. 10E-10G are pooled from 2 independent experiments. […]

DBA iPSCs = assay: Cytotoxicity (Annexin and DAPI positive cells) at varying doses; assay type: cell-based, human; conditions: drug doses up to 20 μM
Excerpt: FIGS. 9A-9D show compounds screened for rescue of erythroid differentiation defects. […] (FIG. 9B) List of compounds screened that provided promising results. (FIG. 9C) FACS plots showing GlyA and CD71 expression levels for indicated genotype (top panels). Micrographs showing GlyA^+ CD71^+ cells in indicated genotype (bottom panels). (FIG. 9D) Plot showing the percentage of Annexin and DAPI positive cells following varying doses of SMER28.

[2] = test system: mice with irradiation-induced anemia; assay: Irradiation-induced anemia in mice, peripheral blood RBC counts and hematocrit; assay type: in vivo, mouse; conditions: 10 mg/kg, 3 weeks, sub-lethally irradiated mice
Protocol: as §1

[3] = test system: CD34-5F progenitors with ATG5 knockdown; assay: Erythroid differentiation of CD34-5F cells transduced with shRNAs for ATG5; assay type: cell-based, human; conditions: SMER28 10 μM; p=0.005
Protocol: (FIG. 13A) Induction of autophagy by SMER28 (40 μM) monitored by protein levels of p62, LC3-I, and LC3-II after 24 hours. Cells were also treated with 5-FU (100 nM) to induce autophagy, or inhibitor of transcription actinomycin D (ActD; 100 nM). (FIG. 13B) Induction of autophagy by SMER28 (40 μM) monitored by protein levels of p62, LC3-I, and LC3-II after 24 hours treatment with or without lysosomal blockade with bafilomycin A (200 nM for 4 hours). Untreated samples are shown at higher exposure, to capture dynamic changes in the LC3-II levels. Rapamycin (200 nM) is a positive control. LC3-II levels relative to GAPDH are quantitated on the right. (FIG. 13C) Erythroid differentiation of CD34-5F cells transduced with shRNAs for luciferase (LUC) or ATG5±SMER28. Representative flow plots and quantitation showing the number of erythroid cells induced by SMER28 (10 μM) normalized to DMSO. 2 control luciferase shRNAs and 2 ATG5 shRNAs are included (knockdown efficiency in hematopoietic cells of 58% and 50%, respectively), each with 2 independent lines; p=0.005, 3 independent experiments. (FIG. 13D) Atg5 deficiency causes anemia in zebrafish. […] Representative images (left), and quantitation (right) with embryos grouped by high, medium, and low levels of benzidine staining. […]

C=CCNc1ncnc2ccc(Br)cc12 [SMER28, 6-Bromo-N-2-propenyl-4-quinazolinam]
embryos showing high levels of hemoglobin ([1]; 1 μM, 40 hpf, vehicle-treated controls 20%, p<0.05): Over 50% | hemoglobin staining / RBC output in yolk sac ([1]; treated for 40 hpf, benzidine staining): robust increase; also recorded: rescues | Cytotoxicity (DBA iPSCs): not observed | hematocrit vs vehicle ([2]; p=0.04): modestly elevated | peripheral blood RBC counts vs vehicle ([2]; p=0.07): modestly elevated | effect of SMER28 on erythroid differentiation after knockdown of ATG5 [3]: significantly reduced

From patent US11980620B2, “Compounds and methods for treatment of Diamond Blackfan anemia” (THE CHILDREN'S MEDICAL CENTER CORPORATION, priority 2017, dated 2024)
